# Assay results: PubChem BioAssay (NCI)
#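 Cells were grown in 96-well plates and exposed to each compound for 48 hours at five concentrations; endpoints were interpolated linearly between bracketing concentrations, or set to the highest concentration if not reached. The concentration for full growth arrest is given as TGI.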
# Legend:
# Assay in all cases: DTP human tumour cell line panel, 48 h
# BT-549 breast = test system: BT-549 breast
# SNB-19 CNS = test system: SNB-19 CNS
# SW-620 colon = test system: SW-620 colon
# SN12C renal = test system: SN12C renal
# OVCAR-3 ovarian = test system: OVCAR-3 ovarian
# SK-MEL-2 melanoma = test system: SK-MEL-2 melanoma
# LOX IMVI melanoma = test system: LOX IMVI melanoma
# HT29 colon = test system: HT29 colon
# T-47D breast = test system: T-47D breast
# SF-295 CNS = test system: SF-295 CNS
# TK-10 renal = test system: TK-10 renal
# OVCAR-8 ovarian = test system: OVCAR-8 ovarian
# SF-539 CNS = test system: SF-539 CNS
# SNB-75 CNS = test system: SNB-75 CNS
# A498 renal = test system: A498 renal
# SK-OV-3 ovarian = test system: SK-OV-3 ovarian
# IGROV1 ovarian = test system: IGROV1 ovarian
# UO-31 renal = test system: UO-31 renal
# NCI-H522 lung = test system: NCI-H522 lung
# HCT-15 colon = test system: HCT-15 colon
# CAKI-1 renal = test system: CAKI-1 renal
# CCRF-CEM leukemia = test system: CCRF-CEM leukemia
# SK-MEL-5 melanoma = test system: SK-MEL-5 melanoma
# PC-3 prostate = test system: PC-3 prostate
# MDA-MB-435 = test system: MDA-MB-435
# MDA-N = test system: MDA-N
# HOP-92 NSCLC = test system: HOP-92 NSCLC
# ACHN renal = test system: ACHN renal
# EKVX NSCLC = test system: EKVX NSCLC
# HCT-116 colon = test system: HCT-116 colon
# A549 NSCLC = test system: A549 NSCLC
# NCI/ADR-RES ovarian = test system: NCI/ADR-RES ovarian
# COLO 205 colon = test system: COLO 205 colon
# SF-268 CNS = test system: SF-268 CNS
# OVCAR-5 ovarian = test system: OVCAR-5 ovarian
# SR leukemia = test system: SR leukemia
# NCI-H460 lung = test system: NCI-H460 lung
# HCC-2998 colon = test system: HCC-2998 colon
# MDA-MB-231 breast = test system: MDA-MB-231 breast
# MALME-3M melanoma = test system: MALME-3M melanoma
# RPMI-8226 leukemia = test system: RPMI-8226 leukemia
# SK-MEL-28 melanoma = test system: SK-MEL-28 melanoma
# DU-145 prostate = test system: DU-145 prostate
# MCF7 breast = test system: MCF7 breast
# M14 melanoma = test system: M14 melanoma
# KM12 colon = test system: KM12 colon
# HL-60(TB) leukemia = test system: HL-60(TB) leukemia
# HOP-62 NSCLC = test system: HOP-62 NSCLC
# NCI-H23 lung = test system: NCI-H23 lung
# RXF 393 renal = test system: RXF 393 renal
# 786-0 renal = test system: 786-0 renal
# NCI-H226 lung = test system: NCI-H226 lung
# HS 578T breast = test system: HS 578T breast
# UACC-62 melanoma = test system: UACC-62 melanoma
# OVCAR-4 ovarian = test system: OVCAR-4 ovarian
# UACC-257 melanoma = test system: UACC-257 melanoma
# MOLT-4 leukemia = test system: MOLT-4 leukemia
# U251 CNS = test system: U251 CNS
# XF 498 CNS = test system: XF 498 CNS
# KM20L2 colon = test system: KM20L2 colon
# DLD-1 colon = test system: DLD-1 colon
# K-562 leukemia = test system: K-562 leukemia
# DMS 273 small cell lung = test system: DMS 273 small cell lung
# M19-MEL melanoma = test system: M19-MEL melanoma
# SNB-78 CNS = test system: SNB-78 CNS
# LXFL 529 NSCLC = test system: LXFL 529 NSCLC
# HOP-18 NSCLC = test system: HOP-18 NSCLC
smiles,measurement,setting,value
Cc1ccsc1C(=S)Nc1ccc(Cl)c(/C=N/OC(C)C)c1,TGI,BT-549 breast,> 100 µM
same,TGI,SNB-19 CNS,> 100 µM
same,TGI,SW-620 colon,> 100 µM
same,TGI,SN12C renal,> 100 µM
same,TGI,OVCAR-3 ovarian,> 100 µM
same,TGI,SK-MEL-2 melanoma,> 100 µM
same,TGI,LOX IMVI melanoma,> 100 µM
same,TGI,HT29 colon,> 100 µM
same,TGI,T-47D breast,> 100 µM
same,TGI,SF-295 CNS,> 100 µM
same,TGI,TK-10 renal,> 100 µM
same,TGI,OVCAR-8 ovarian,> 100 µM
same,TGI,SF-539 CNS,> 100 µM
same,TGI,SNB-75 CNS,> 100 µM
same,TGI,A498 renal,> 100 µM
same,TGI,SK-OV-3 ovarian,> 100 µM
same,TGI,IGROV1 ovarian,> 100 µM
same,TGI,UO-31 renal,> 100 µM
same,TGI,NCI-H522 lung,> 100 µM
same,TGI,HCT-15 colon,> 100 µM
same,TGI,CAKI-1 renal,> 100 µM
same,TGI,CCRF-CEM leukemia,> 100 µM
same,TGI,SK-MEL-5 melanoma,75.4 µM
same,TGI,PC-3 prostate,> 100 µM
same,TGI,MDA-MB-435,> 100 µM
same,TGI,MDA-N,> 100 µM
same,TGI,HOP-92 NSCLC,> 100 µM
same,TGI,ACHN renal,> 100 µM
same,TGI,EKVX NSCLC,> 100 µM
same,TGI,HCT-116 colon,> 100 µM
same,TGI,A549 NSCLC,> 100 µM
same,TGI,NCI/ADR-RES ovarian,> 100 µM
same,TGI,COLO 205 colon,47.3 µM
same,TGI,SF-268 CNS,> 100 µM
same,TGI,OVCAR-5 ovarian,> 100 µM
same,TGI,SR leukemia,48.7 µM
same,TGI,NCI-H460 lung,> 100 µM
same,TGI,HCC-2998 colon,64.3 µM
same,TGI,MDA-MB-231 breast,> 100 µM
same,TGI,MALME-3M melanoma,98.9 µM
same,TGI,RPMI-8226 leukemia,34.1 µM
same,TGI,SK-MEL-28 melanoma,> 100 µM
same,TGI,DU-145 prostate,> 100 µM
same,TGI,MCF7 breast,62.6 µM
same,TGI,M14 melanoma,> 100 µM
same,TGI,KM12 colon,> 100 µM
same,TGI,HL-60(TB) leukemia,34.6 µM
same,TGI,HOP-62 NSCLC,> 100 µM
same,TGI,NCI-H23 lung,> 100 µM
same,TGI,RXF 393 renal,69.4 µM
same,TGI,786-0 renal,> 100 µM
same,TGI,NCI-H226 lung,> 100 µM
same,TGI,HS 578T breast,> 100 µM
same,TGI,UACC-62 melanoma,> 100 µM
same,TGI,OVCAR-4 ovarian,98.9 µM
same,TGI,UACC-257 melanoma,> 100 µM
same,TGI,MOLT-4 leukemia,35.2 µM
same,TGI,U251 CNS,> 100 µM
Cc1ccc(C2=Nc3ccccc3S(=O)C(c3ccc4c(c3)OCO4)C2)cc1 (stereo not given),TGI,SNB-19 CNS,> 100 µM
same,TGI,SW-620 colon,34.5 µM
same,TGI,SN12C renal,33.5 µM
same,TGI,OVCAR-3 ovarian,69.4 µM
same,TGI,SK-MEL-2 melanoma,41.6 µM
same,TGI,LOX IMVI melanoma,29.8 µM
same,TGI,HT29 colon,31.5 µM
same,TGI,SF-295 CNS,> 100 µM
same,TGI,TK-10 renal,> 100 µM
same,TGI,XF 498 CNS,36.1 µM
same,TGI,OVCAR-8 ovarian,46.9 µM
same,TGI,SF-539 CNS,46.3 µM
same,TGI,SNB-75 CNS,> 100 µM
same,TGI,A498 renal,51.7 µM
same,TGI,SK-OV-3 ovarian,91.3 µM
same,TGI,KM20L2 colon,33 µM
same,TGI,IGROV1 ovarian,> 100 µM
same,TGI,UO-31 renal,> 100 µM
same,TGI,NCI-H522 lung,44.7 µM
same,TGI,CAKI-1 renal,> 100 µM
same,TGI,CCRF-CEM leukemia,83.9 µM
same,TGI,SK-MEL-5 melanoma,29.2 µM
same,TGI,DLD-1 colon,30.7 µM
same,TGI,ACHN renal,82.4 µM
same,TGI,EKVX NSCLC,> 100 µM
same,TGI,HCT-116 colon,37.3 µM
same,TGI,A549 NSCLC,> 100 µM
same,TGI,COLO 205 colon,> 100 µM
same,TGI,SF-268 CNS,50.5 µM
same,TGI,SR leukemia,> 100 µM
same,TGI,NCI-H460 lung,> 10 µM
same,TGI,HCC-2998 colon,> 10 µM
same,TGI,K-562 leukemia,98.8 µM
same,TGI,DMS 273 small cell lung,> 100 µM
same,TGI,MALME-3M melanoma,> 100 µM
same,TGI,SK-MEL-28 melanoma,89.9 µM
same,TGI,M19-MEL melanoma,> 100 µM
same,TGI,M14 melanoma,38 µM
same,TGI,KM12 colon,57.8 µM
same,TGI,SNB-78 CNS,86.9 µM
same,TGI,HL-60(TB) leukemia,59.1 µM
same,TGI,HOP-62 NSCLC,> 100 µM
same,TGI,NCI-H23 lung,48.9 µM
same,TGI,RXF 393 renal,32.1 µM
same,TGI,786-0 renal,44 µM
same,TGI,NCI-H226 lung,> 100 µM
same,TGI,UACC-62 melanoma,51.2 µM
same,TGI,OVCAR-4 ovarian,> 100 µM
same,TGI,UACC-257 melanoma,88.4 µM
same,TGI,LXFL 529 NSCLC,> 10 µM
same,TGI,MOLT-4 leukemia,> 100 µM
same,TGI,U251 CNS,31.1 µM
same,TGI,HOP-18 NSCLC,> 100 µM
CCC12C=CCN3CCC4(c5cc(C(c6ccc(OC)cc6)C6Cc7ccccc7N6)c(OC)cc5N(C)C4C(O)(C(=O)OC)C1O)C32 (stereo not given),TGI,BT-549 breast,80.6 µM
same,TGI,SNB-19 CNS,> 100 µM
same,TGI,SW-620 colon,> 100 µM
same,TGI,SN12C renal,> 100 µM
same,TGI,OVCAR-3 ovarian,94.9 µM
same,TGI,SK-MEL-2 melanoma,68.8 µM
same,TGI,LOX IMVI melanoma,36 µM
same,TGI,HT29 colon,> 100 µM
same,TGI,T-47D breast,9.98 µM
same,TGI,SF-295 CNS,> 100 µM
same,TGI,TK-10 renal,66.3 µM
same,TGI,OVCAR-8 ovarian,> 100 µM
same,TGI,SF-539 CNS,78.4 µM
same,TGI,SNB-75 CNS,33.7 µM
same,TGI,A498 renal,80.3 µM
same,TGI,SK-OV-3 ovarian,> 100 µM
same,TGI,IGROV1 ovarian,51.2 µM
same,TGI,UO-31 renal,31.5 µM
same,TGI,NCI-H522 lung,98 µM
same,TGI,HCT-15 colon,> 100 µM
same,TGI,CAKI-1 renal,> 100 µM
same,TGI,CCRF-CEM leukemia,16.6 µM
same,TGI,SK-MEL-5 melanoma,52 µM
same,TGI,PC-3 prostate,> 100 µM
same,TGI,MDA-MB-435,80.4 µM
same,TGI,MDA-N,> 100 µM
same,TGI,HOP-92 NSCLC,8.14 µM
same,TGI,ACHN renal,> 100 µM
same,TGI,EKVX NSCLC,> 100 µM
same,TGI,HCT-116 colon,> 100 µM
same,TGI,A549 NSCLC,> 100 µM
same,TGI,NCI/ADR-RES ovarian,> 100 µM
same,TGI,COLO 205 colon,27.5 µM
same,TGI,SF-268 CNS,> 100 µM
same,TGI,OVCAR-5 ovarian,> 100 µM
same,TGI,SR leukemia,27 µM
same,TGI,NCI-H460 lung,54.5 µM
same,TGI,HCC-2998 colon,57.5 µM
same,TGI,K-562 leukemia,41.7 µM
same,TGI,MDA-MB-231 breast,59.2 µM
same,TGI,MALME-3M melanoma,> 100 µM
same,TGI,RPMI-8226 leukemia,13.8 µM
same,TGI,SK-MEL-28 melanoma,> 100 µM
same,TGI,DU-145 prostate,> 100 µM
same,TGI,MCF7 breast,28.3 µM
same,TGI,M14 melanoma,> 100 µM
same,TGI,KM12 colon,36.5 µM
same,TGI,HL-60(TB) leukemia,24.1 µM
same,TGI,HOP-62 NSCLC,90.1 µM
same,TGI,NCI-H23 lung,> 100 µM
same,TGI,RXF 393 renal,83.1 µM
same,TGI,786-0 renal,> 100 µM
same,TGI,NCI-H226 lung,> 100 µM
same,TGI,HS 578T breast,> 100 µM
same,TGI,UACC-62 melanoma,31.4 µM
same,TGI,OVCAR-4 ovarian,> 100 µM
same,TGI,UACC-257 melanoma,> 100 µM
same,TGI,MOLT-4 leukemia,18.2 µM
same,TGI,U251 CNS,35.4 µM
